Laboratory results reported in patent publication US12427147B2, “Retinal ganglion cell death inhibitor” (SENJU PHARMACEUTICAL CO., LTD., priority 2018, dated 2025).

Legend:
[1] = tested on: rat retinal ganglion cells; test: Menadione-induced retinal ganglion cell death, low-molecular ALK3 inhibitors (Example 2); format: cell-based; conditions: 6 μM menadione; for dose dependence of cell death inhibitory effect: 100 nM to 10 μM K02288, 100 nM to 1 μM LDN-193189; for cell death inhibitory effect compared to the group treated with menadione alone / protection of cells from retinal ganglion cell death induced by menadione: 18 hours
Experimental: Rat retinal ganglion cells were isolated in the same manner as in Example 1. In the experimental system (FIG. 2A) of K02288 treatment, three rats were used; whereas, in the experimental system (FIG. 2B) of LDN-193189 treatment, two rats were used.
Retinal ganglion cells were suspended in RGC culture medium and seeded in the wells of a 96-well plate at a density of 1×10^4 cells/well and cultured at 37° C. under a 5% CO2 atmosphere for 24 hours. Twenty four hours later, the medium was removed. To a medium for a menadione reaction, 6 μM menadione and ALK3 inhibitors, i.e., K02288 (Tocris Bioscience) or LDN-193189 (MedChemExpress) (PLOS ONE 2013 8 (4) e62721) were added in accordance with the constitutions of individual groups. DMSO was added to a non K02288 treatment group or a non LDN-193189 treatment group, (a group treated with menadione alone). The cells were incubated at 37° C. for 18 hours and thereafter stained by use of LIVE/DEAD Viability/Cytotoxicity Kit (Thermo Fisher Scientific Inc.). Three photographs per well were taken by use of IncuCyte S3 live cell analysis system (Essen Bioscience) and analyzed. Data was calculated as the ratio of the number of survival cells relative to a total number of dead cells and survival cells. The RGC culture medium and medium for a menadione reaction used herein are the same as those used in Example 1.
Constitutions of groups (a group treated with K02288: n=8, a group treated with LDN-193189: n=6)
Control group: menadione was absent
A group treated with menadione alone: menadione and DMSO were added
A group treated with K02288 (3 groups: 100 nM, 1 μM, 10 μM): menadione and K02288 were added
A group treated with LDN-193189 (2 groups: 100 nM, 1 μM): menadione and LDN-193189 were added.

[2] = tested on: rat retinal ganglion cells; test: Menadione-induced retinal ganglion cell death, antibody/K02288 treatment (Example 1); format: cell-based; conditions: 6 μM menadione, 18 hours, vs Normal IgG treatment group, n=3, FIG. 1C
Experimental: The retina was taken out from each of 7 days-old SD rats (13 rats) (Japan SLC Co., Ltd.) and retinal cells were dispersed by Dissociation Kit-Postnatal Neurons (Miltenyi Biotec). Thereafter, retinal ganglion cells (RGC) were isolated from other retinal cells by use of Retinal Ganglion Cell Isolation Kits (Miltenyi Biotec).
The retinal ganglion cells were suspended in RGC culture medium, seeded in the wells of a 96-well plate at a density of 2×10^4 cells/well and cultured at 37° C. under a 5% CO2 atmosphere for 24 hours. Twenty four hours later, the medium was removed. To a medium for a menadione reaction, 6 μM menadione, Normal rabbit IgG (Santa Cruz Biotechnology, Inc.), an anti-ALK3 antibody (Anti-BMPR1A antibody, Abcam plc.), an anti-ALK4 antibody (anti-Activin A receptor Type IB antibody, Abcam plc.) and an ALK3 inhibitor, i.e., K02288 (Tocris Bioscience) (PLOS ONE 2013 8 (4) e62721) were added in accordance with the constitutions of individual groups (described later) and incubation was performed at 37° C. for 18 hours. […] Three photographs per well were taken by IncuCyte S3 live cell analysis system (Essen Bioscience) and analyzed. Data was calculated as the ratio of the number of survival cells relative to a total number of dead cells and survival cells. […]

[3] = tested on: retinal ganglion cells; conditions: mouse retina, Non Patent Literature 1; cited from earlier work
[4] = 1 μM test compound, FIGS. 2A and 2B

Molecule | dose dependence of cell death inhibitory effect [1] | cell death inhibitory effect compared to the group treated with menadione alone [1, 4] | protection of cells from retinal ganglion cell death induced by menadione [1] | cell death inhibitory effect compared to the group treated with menadione alone ([1]; 10 μM test compound, FIG. 2A) | suppression of retinal ganglion cell death (ratio of survival cells to total cells) [2] | effect on retinal ganglion cell death induced by NMDA [3]
c1ccc2c(-c3cnn4cc(-c5ccc(N6CCNCC6)cc5)cnc34)ccnc2c1 [LDN-193189, 4-[6-(4-piperazin-1-yl-phenyl)-pyrazolo[1,5-α]pyrimidin-3-yl]-quinoline] | cell death inhibitory effect in a dose-dependent manner | significant cell death inhibitory effect | exerted an effect to protect cells | – | – | –
COc1cc(-c2cc(-c3cccc(O)c3)cnc2N)cc(OC)c1OC [K02288, 3-[6-amino-5-(3,4,5-trimethoxyphenyl)-3-pyridinyl]-phenol] | cell death inhibitory effect in a dose-dependent manner | significant cell death inhibitory effect | exerted an effect to protect cells | significant cell death inhibitory effect | cell death was significantly suppressed | –
Noggin: a BMP inhibitor (naturally occurring protein) (protein, UniProt Q13253 28-232, looked up) Noggin: QHYLHIRPAPSDNLPLVDLIEHPDPIFDPKEKDLNETLLRSLLGGHYDPGFMATSPPEDRPGGGGGAAGGAEDLAELDQLLRQRPSGAMPSEIKGLEFSEGLAQGKKQRLSKKLRRKLQMWLWSQTFCPVLYAWNDLGSRFWPRYVKVGSCFSKRSCSVPEGMVCKPSKSVHLTVLRWRCQRRGGQRCGWIPIQYPIISECKCSC | – | – | – | – | – | accelerated
BMP4: a kind of BMP (bone morphogenetic protein) (protein, UniProt P12644 293-408, looked up) Bone morphogenetic protein 4: SPKHHSQRARKKNKNCRRHSLYVDFSDVGWNDWIVAPPGYQAFYCHGDCPFPLADHLNSTNHAIVQTLVNSVNSSIPKACCVPTELSAISMLYLDEYDKVVLKNYQEMVVEGCGCR | – | – | – | – | – | suppressed
